These compounds were tested against T1, human PAD4 (Homo sapiens, UniProt Q9UM07) (assay: In vitro PAD4 BAEE biochemical assay). Settings: human PAD4, BAEE substrate; 5 nM PAD4, 2 mM calcium chloride, 3 mM BAEE; geometric mean of multiple experiments.
T1 construct: human PAD4 (NM_012387), A2P663, was PCR amplified; His-SUMO (N, cleaved yes); made in house; host or cells: E. coli BL21(DE3)
How it was run: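 Ammonia generated from BAEE serves as the readout, measured by o-phthalaldehyde after EDTA termination. Final conditions: 5 nM human PAD4 (SUMO tag cleaved), 2 mM CaCl2, 3 mM BAEE, pH 7.6 MOPS buffer, 25 °C for 2 h following a 30-min compound preincubation.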

T1 sequence (Q9UM07 2-663): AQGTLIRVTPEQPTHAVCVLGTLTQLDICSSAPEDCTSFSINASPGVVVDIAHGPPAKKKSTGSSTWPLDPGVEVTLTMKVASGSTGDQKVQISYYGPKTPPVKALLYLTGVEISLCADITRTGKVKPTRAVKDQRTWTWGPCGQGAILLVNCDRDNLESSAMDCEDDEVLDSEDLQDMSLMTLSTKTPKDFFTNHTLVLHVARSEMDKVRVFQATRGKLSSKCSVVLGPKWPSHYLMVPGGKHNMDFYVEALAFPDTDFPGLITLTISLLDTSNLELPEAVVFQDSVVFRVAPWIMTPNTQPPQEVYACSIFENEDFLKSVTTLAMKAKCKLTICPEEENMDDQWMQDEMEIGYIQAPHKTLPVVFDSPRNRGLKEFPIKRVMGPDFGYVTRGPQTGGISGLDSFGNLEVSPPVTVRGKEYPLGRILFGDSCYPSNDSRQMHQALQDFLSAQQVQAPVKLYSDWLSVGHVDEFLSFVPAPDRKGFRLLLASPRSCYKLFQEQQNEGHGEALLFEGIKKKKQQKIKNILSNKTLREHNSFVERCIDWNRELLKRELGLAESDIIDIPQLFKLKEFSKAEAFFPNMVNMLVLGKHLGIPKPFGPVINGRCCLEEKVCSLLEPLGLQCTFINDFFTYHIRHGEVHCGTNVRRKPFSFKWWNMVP

| SMILES | IC50 |
| --- | --- |
| COc1cc(C(=O)N2[C@H]3CC[C@@H]2[C@H](N)C3)cc2nc(-c3cc4ccc([C@@H](C)NC(=O)CCN5C(=O)NC(C)(C)C5=O)nc4n3CC3CC3)c(C)n12 [Example 148, ~{N}-[(1~{R})-1-[2-[7-[(1~{R},2~{R},4~{S})-2-amino-7-azabicyclo[2.2.1]heptane-7-carbonyl]-5-methoxy-3-methylimidazo [1,2-a]pyridin-2-yl]-1-(cyclopropylmethyl)pyrrolo [2,3-b]pyridin-6-yl]ethyl]-3-(4,4-dimethyl-2,5-dioxoimidazolidin-1-yl)propenamide] | 0.0562 µM |
| CCOC(=O)CCC(=O)N[C@H](C)c1ccc2cc(-c3nc4cc(C(=O)N5[C@H]6CC[C@@H]5[C@H](N)C6)cc(OC)n4c3C)n(CC3CC3)c2n1 [Example 152, ethyl 4-[[(1~{R})-1-[2-[7-[(1~{R},2~{R},4~{S})-2-amino-7-azabicyclo[2.2.1]heptane-7-carbonyl]-5-methoxy-3-methylimidazo [1,2-a]pyridin-2-yl]-1-(cyclopropylmethyl)pyrrolo [2,3-b]pyridin-6-yl]ethyl]amino]-4-oxobutanoate] | 0.0635 µM |
| COc1cc(C(=O)N2[C@H]3CC[C@@H]2[C@H](N)C3)cc2nc(-c3cc4ccc([C@@H](C)NC(=O)CCS(C)(=O)=O)nc4n3CC3CC3)c(C)n12 [Example 153, ~{N}-[(1~{R})-1-[2-[7-[(1~{R},2~{R},4~{S})-2-amino-7-azabicyclo[2.2.1]heptane-7-carbonyl]-5-methoxy-3-methylimidazo [1,2-a]pyridin-2-yl]-1-(cyclopropylmethyl)pyrrolo [2,3-b]pyridin-6-yl]ethyl]-3-methylsulfonylpropanamide] | 0.0687 µM |
| COc1cc(C(=O)N2[C@H]3CC[C@@H]2[C@H](N)C3)cc2nc(-c3cc4ccc([C@@H](C)NC(=O)CCC(=O)NS(=O)(=O)c5ccccc5)nc4n3CC3CC3)c(C)n12 [Example 156, ~{N}-[(1~{R})-1-[2-[7-[(1~{R},2~{R},4~{S})-2-amino-7-azabicyclo[2.2.1]heptane-7-carbonyl]-5-methoxy-3-methylimidazo [1,2-a]pyridin-2-yl]-1-(cyclopropylmethyl)pyrrolo [2,3-b]pyridin-6-yl]ethyl]-~{N}′-(benzenesulfonyl) butanediamide] | 0.0203 µM |
| COc1cc(C(=O)N2[C@H]3CC[C@@H]2[C@H](N)C3)cc2nc(-c3cc4ccc([C@@H](C)NC(=O)C56CC(C(F)(F)F)(C5)C6)nc4n3CC3CC3)c(C)n12 [Example 157, ~{N}-[(1~{R})-1-[2-[7-[(1~{R},2~{R},4~{S})-2-amino-7-azabicyclo[2.2.1]heptane-7-carbonyl]-5-methoxy-3-methylimidazo [1,2-a]pyridin-2-yl]-1-(cyclopropylmethyl)pyrrolo [2,3-b]pyridin-6-yl]ethyl]-3-(trifluoromethyl)bicyclo [1.1.1]pentane-1-carboxamide] | 0.133 µM |
| COc1cc(C(=O)N2[C@H]3CC[C@@H]2[C@H](N)C3)cc2nc(-c3cc4ccc([C@@H](C)NC(=O)C56CC(C#N)(C5)C6)nc4n3CC3CC3)c(C)n12 [Example 158, ~{N}-[(1~{R})-1-[2-[7-[(1~{R},2~{R},4~{S})-2-amino-7-azabicyclo[2.2.1]heptane-7-carbonyl]-5-methoxy-3-methylimidazo [1,2-a]pyridin-2-yl]-1-(cyclopropylmethyl)pyrrolo [2,3-b]pyridin-6-yl]ethyl]-3-cyanobicyclo[1.1.1]pentane-1-carboxamide] | 0.0738 µM |
| COC(=O)C12CC(C(=O)N[C@H](C)c3ccc4cc(-c5nc6cc(C(=O)N7[C@H]8CC[C@@H]7[C@H](N)C8)cc(OC)n6c5C)n(CC5CC5)c4n3)(C1)C2 [Example 159, methyl 3-[[(1~{R})-1-[2-[7-[(1~{R},2~{R},4~{S})-2-amino-7-azabicyclo[2.2.1]heptane-7-carbonyl]-5-methoxy-3-methylimidazo [1,2-a]pyridin-2-yl]-1-(cyclopropylmethyl)pyrrolo [2,3-b]pyridin-6-yl]ethyl]carbamoyl]bicyclo[1.1.1] pentane-1-carboxylate] | 0.0583 µM |
| COc1cc(C(=O)N2[C@H]3CC[C@@H]2[C@H](N)C3)cc2nc(-c3cc4ccc([C@@H](C)NC(=O)CCC(=O)O)nc4n3CC3CC3)c(C)n12 [Example 163, 4-[[(1~{R})-1-[2-[7-[(1~{R},2~{R},4~{S})-2-amino-7-azabicyclo[2.2.1]heptane-7-carbonyl]-5-methoxy-3-methylimidazo [1,2-a]pyridin-2-yl]-1-(cyclopropylmethyl)pyrrolo [2,3-b]pyridin-6-yl]ethyl]amino]-4-oxobutanoic acid] | 0.0191 µM |
| [2H]C([2H])([2H])OC(=O)N[C@H](C)c1ccc2cc(-c3nc4cc(C(=O)N5[C@H]6CC[C@@H]5[C@H](N)C6)cc(OC)n4c3C)n(CC3CC3)c2n1 [Example 164, trideuteriomethyl~{N}-[(1~{R})-1-[2-[7-[(1~{R},2~{R},4~{S})-2-amino-7-azabicyclo[2.2.1]heptane-7-carbonyl]-5-methoxy-3-methylimidazo[1,2-a]pyridin-2-yl]-1-(cyclopropylmethyl)pyrrolo [2,3-b]pyridin-6-yl]ethyl] carbamate] | 0.079 µM |

Now from value to compound:

| IC50 | SMILES |
| --- | --- |
| 0.077 µM | COc1cc(C(=O)N2[C@H]3CC[C@@H]2[C@H](N)C3)cc2nc(-c3cc4ccc([C@@H](C)NC(=O)C5CN(C(C)=O)C5)nc4n3CC3CC3)c(C)n12 [Example 149, 1-acetyl-~{N}-[(1~{R})-1-[2-[7-[(1~{R},2~{R},4~{S})-2-amino-7-azabicyclo [2.2.1]heptane-7-carbonyl]-5-methoxy-3-methylimidazo [1,2-a]pyridin-2-yl]-1-(cyclopropylmethyl)pyrrolo [2,3-b]pyridin-6-yl]ethyl] azetidine-3-carboxamide] |
| 0.041 µM | COc1cc(C(=O)N2[C@H]3CC[C@@H]2[C@H](N)C3)cc2nc(-c3cc4ccc([C@@H](C)NC(=O)C5CCOCC5)nc4n3CC3CC3)c(C)n12 [Example 150, ~{N}-[(1~{R})-1-[2-[7-[(1~{R},2~{R},4~{S})-2-amino-7-azabicyclo[2.2.1]heptane-7-carbonyl]-5-methoxy-3-methylimidazo [1,2-a]pyridin-2-yl]-1-(cyclopropylmethyl)pyrrolo [2,3-b]pyridin-6-yl]ethyl] oxane-4-carboxamide] |
| 0.0598 µM | COc1cc(C(=O)N2[C@H]3CC[C@@H]2[C@H](N)C3)cc2nc(-c3cc4ccc([C@@H](C)NC(=O)C5(C)CC5)nc4n3CC3CC3)c(C)n12 [Example 151, ~{N}-[(1~{R})-1-[2-[7-[(1~{R},2~{R},4~{S})-2-amino-7-azabicyclo[2.2.1]heptane-7-carbonyl]-5-methoxy-3-methylimidazo [1,2-a]pyridin-2-yl]-1-(cyclopropylmethyl)pyrrolo [2,3-b]pyridin-6-yl]ethyl]-1-methylcyclopropane-1-carboxamide] |
| 0.0534 µM | COc1cc(C(=O)N2[C@H]3CC[C@@H]2[C@H](N)C3)cc2nc(-c3cc4ccc([C@@H](C)NC(=O)CS(C)(=O)=O)nc4n3CC3CC3)c(C)n12 [Example 154, ~{N}-[(1~{R})-1-[2-[7-[(1~{R},2~{R},4~{S})-2-amino-7-azabicyclo[2.2.1]heptane-7-carbonyl]-5-methoxy-3-methylimidazo [1,2-a]pyridin-2-yl]-1-(cyclopropylmethyl)pyrrolo[2,3-b]pyridin-6-yl]ethyl]-2-methylsulfonylacetamide] |
| 0.0455 µM | COc1cc(C(=O)N2[C@H]3CC[C@@H]2[C@H](N)C3)cc2nc(-c3cc4ccc([C@@H](C)NC(=O)C(C)(C)C(=O)O)nc4n3CC3CC3)c(C)n12 [Example 155, 3-[[(1~{R})-1-[2-[7-[(1~{R},2~{R},4~{S})-2-amino-7-azabicyclo[2.2.1]heptane-7-carbonyl]-5-methoxy-3-methylimidazo [1,2-a]pyridin-2-yl]-1-(cyclopropylmethyl)pyrrolo [2,3-b]pyridin-6-yl]ethyl]amino]-2,2-dimethyl-3-oxopropanoic acid] |
| 0.0532 µM | COc1cc(C(=O)N2[C@H]3CC[C@@H]2[C@H](N)C3)cc2nc(-c3cc4ccc([C@@H](C)NC(=O)C56CC(C5)C6)nc4n3CC3CC3)c(C)n12 [Example 160, ~{N}-[(1~{R})-1-[2-[7-[(1~{R},2~{R},4~{S})-2-amino-7-azabicyclo[2.2.1]heptane-7-carbonyl]-5-methoxy-3-methylimidazo [1,2-a]pyridin-2-yl]-1-(cyclopropylmethyl)pyrrolo [2,3-b]pyridin-6-yl]ethyl]bicyclo[1.1.1]pentane-1-carboxamide] |
| 0.0798 µM | COc1cc(C(=O)N2[C@H]3CC[C@@H]2[C@H](N)C3)cc2nc(-c3cc4ccc([C@@H](C)NC(=O)CC(C)(C)C(=O)O)nc4n3CC3CC3)c(C)n12 [Example 161, 4-[[(1~{R})-1-[2-[7-[(1~{R},2~{R},4~{S})-2-amino-7-azabicyclo[2.2.1]heptane-7-carbonyl]-5-methoxy-3-methylimidazo [1,2-a]pyridin-2-yl]-1-(cyclopropylmethyl)pyrrolo [2,3-b]pyridin-6-yl]ethyl]amino]-2,2-dimethyl-4-oxobutanoic acid] |
| 0.0991 µM | COc1cc(C(=O)N2[C@H]3CC[C@@H]2[C@H](N)C3)cc2nc(-c3cc4ccc([C@@H](C)NC(=O)C(F)(F)F)nc4n3CC3CC3)c(C)n12 [Example 162, ~{N}-[(1~{R})-1-[2-[7-[(1~{R},2~{R},4~{S})-2-amino-7-azabicyclo[2.2.1]heptane-7-carbonyl]-5-methoxy-3-methylimidazo [1,2-a]pyridin-2-yl]-1-(cyclopropylmethyl)pyrrolo [2,3-b]pyridin-6-yl]ethyl]-2,2,2-trifluoroacetamide] |
| 0.0605 µM | COc1cc(C(=O)N2[C@H]3CC[C@@H]2[C@H](N)C3)cc2nc(-c3cc4ccc([C@@H](C)NC(=O)C5(C#N)CC5)nc4n3CC3CC3)c(C)n12 [Example 165, ~{N}-[(1~{R})-1-[2-[7-[(1~{R},2~{R},4~{S})-2-amino-7-azabicyclo[2.2.1]heptane-7-carbonyl]-5-methoxy-3-methylimidazo [1,2-a]pyridin-2-yl]-1-(cyclopropylmethyl)pyrrolo [2,3-b]pyridin-6-yl]ethyl]-1-cyanocyclopropane-1-carboxamide] |
